# Test results: patent US20070219203A1, “Arylalkylamino-substituted quinazoline analogues” (Neurogen Corporation, priority 2004, published 2007)
# Molecular target: T1, human capsaicin receptor (Homo sapiens, UniProt Q8NER1)
# T1 construct: expressed in transfected cells
# Assay: Calcium mobilization assay, antagonist activity (Example 6)
# Type: cell-based
# Details: Table I; 50% decrease in fluorescence response of cells expressing human capsaicin receptor exposed to capsaicin
# Protocol: A cDNA encoding full length human capsaicin receptor (SEQ ID NO:1, 2 or 3 of U.S. Pat. No. 6,482,611) is subcloned in the plasmid pBK-CMV (Stratagene, La Jolla, Calif.) for recombinant expression in mammalian cells.
# Human embryonic kidney (HEK293) cells are transfected with the pBK-CMV expression construct encoding the full length human capsaicin receptor using standard methods. The transfected cells are selected for two weeks in media containing G418 (400 μg/ml) to obtain a pool of stably transfected cells. Independent clones are isolated from this pool by limiting dilution to obtain clonal stable cell lines for use in subsequent experiments.
# Cells transfected with expression plasmids (as described in Example 4) and thereby expressing human capsaicin receptor are seeded and grown to 70-90% confluency in FALCON black-walled, clear-bottomed 96-well plates (#3904, BECTON-DICKINSON, Franklin Lakes, N.J.). The culture medium is emptied from the 96 well plates and […] calcium sensitive dye (Molecular Probes, Eugene, Oreg.) is added to each well (dye solution: 1 mg […], 440 μL DMSO and 440 μl 20% pluronic acid in DMSO, diluted 1:250 in Krebs-Ringer HEPES (KRH) buffer (25 mM HEPES, 5 mM KCl, 0.96 mM NaH2PO4, 1 mM MgSO4, 2 mM CaCl2, 5 mM glucose, 1 mM probenecid, pH 7.4), 50 μl diluted solution per well). Plates are covered with aluminum foil and incubated at 37° C. for 1-2 hours in an environment containing 5% CO2. After the incubation, the dye is emptied from the plates, and the cells are washed once with KRH buffer, and resuspended in KRH buffer.
# To measure the ability of a test compound to agonize or antagonize a calcium mobilization response in cells expressing capsaicin receptors to capsaicin or other vanilloid agonist, the EC50 of the agonist capsaicin is first determined. An additional 20 μl of KRH buffer and 1 μl DMSO is added to each well of cells, prepared as described above. 100 μl capsaicin in KRH buffer is automatically transferred by the FLIPR instrument to each well. Capsaicin-induced calcium mobilization is monitored using either FLUOROSKAN ASCENT (Labsystems; Franklin, Mass.) or FLIPR (fluorometric imaging plate reader system; Molecular Devices, Sunnyvale, Calif.) instruments. Data obtained between 30 and 60 seconds after agonist application are used to generate an 8-point concentration response curve, with final capsaicin concentrations of 1 nM to 3 μM. KALEIDAGRAPH software (Synergy Software, Reading, Pa.) is used to fit the data to the equation: y=a*(1/(1+(b/x)^c)) to determine the 50% excitatory concentration (EC50) for the response. In this equation, y is the maximum fluorescence signal, x is the concentration of the agonist or antagonist (in this case, capsaicin), a is the Emax, b corresponds to the EC50 value and c is the Hill coefficient. Determination of Agonist Activity
# Test compounds are dissolved in DMSO, diluted in 20 μl KRH buffer so that the final concentration of test compounds in the assay well is between 1 μM and 5 μM, and added to cells prepared as described above. The 96 well plates containing prepared cells and test compounds are incubated in the dark, at room temperature for 0.5 to 6 hours. It is important that the incubation not continue beyond 6 hours. Just prior to determining the fluorescence response, 100 μl capsaicin in KRH buffer at twice the EC50 concentration determined as described above is automatically added by the FLIPR instrument to each well of the 96 well plate for a final sample volume of 200 μl and a final capsaicin concentration equal to the EC50. The final concentration of test compounds in the assay wells is between 1 μM and 5 μM. […] The concentration of antagonist required to provide a 50% decrease, relative to the response observed in the presence of capsaicin and without antagonist, is the IC50 for the antagonist, and is preferably below 1 micromolar, 100 nanomolar, 10 nanomolar or 1 nanomolar.
# T1 sequence (Q8NER1 whole entry): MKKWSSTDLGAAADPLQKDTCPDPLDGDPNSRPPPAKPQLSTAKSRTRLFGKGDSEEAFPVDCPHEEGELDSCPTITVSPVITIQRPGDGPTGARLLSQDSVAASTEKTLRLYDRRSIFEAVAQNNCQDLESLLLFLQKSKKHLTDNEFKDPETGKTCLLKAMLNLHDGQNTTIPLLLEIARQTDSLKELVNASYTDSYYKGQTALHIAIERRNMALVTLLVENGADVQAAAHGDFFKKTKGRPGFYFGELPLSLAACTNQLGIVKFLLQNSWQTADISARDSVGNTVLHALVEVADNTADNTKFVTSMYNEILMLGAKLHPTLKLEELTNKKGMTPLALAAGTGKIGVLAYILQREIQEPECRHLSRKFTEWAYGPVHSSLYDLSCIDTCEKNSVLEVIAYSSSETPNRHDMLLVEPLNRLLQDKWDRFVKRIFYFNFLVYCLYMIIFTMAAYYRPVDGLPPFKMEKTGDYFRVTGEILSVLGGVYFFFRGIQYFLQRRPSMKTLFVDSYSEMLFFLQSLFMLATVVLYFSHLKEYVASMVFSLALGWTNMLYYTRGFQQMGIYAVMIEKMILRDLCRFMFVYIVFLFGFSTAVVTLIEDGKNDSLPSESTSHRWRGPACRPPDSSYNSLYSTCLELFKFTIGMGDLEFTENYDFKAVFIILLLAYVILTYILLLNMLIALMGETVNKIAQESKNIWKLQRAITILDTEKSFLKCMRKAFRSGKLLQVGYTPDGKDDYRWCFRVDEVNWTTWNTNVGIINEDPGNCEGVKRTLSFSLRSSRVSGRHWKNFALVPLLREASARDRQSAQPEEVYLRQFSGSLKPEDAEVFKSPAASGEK
row,SMILES,IC50
1,"CC(C)COCc1nc(NC(=O)Cc2ccc(F)cc2)c2ccc(-c3ncccc3C(F)(F)F)nc2n1 [Compound 59, 2-(4-fluorophenyl)-N-{2-(isobutoxymethyl)-7-[3-(trifluoromethyl)pyridin-2-yl]pyrido[2,3-d]pyrimidin-4-yl}acetamide]",≤ 1000 nM
2,"CC(C)COCc1nc(NCC(=O)c2cccc(Cl)c2)c2ccc(-c3ncccc3C(F)(F)F)nc2n1 [Compound 60, 1-(3-chlorophenyl)-2-({2-(isobutoxymethyl)-7-[3-(trifluoromethyl)pyridin-2-yl]pyrido[2,3-d]pyrimidin-4-yl}amino)ethanone]",≤ 1000 nM
3,"CC(C)COCc1nc(NC2Cc3ccccc3C2)c2ccc(-c3ncccc3Cl)nc2n1 [Compound 61, 7-(3-chloropyridin-2-yl)-N-(2,3-dihydro-1H-inden-2-yl)-2-(isobutoxymethyl)pyrido[2,3-d]pyrimidin-4-amine]",≤ 1000 nM
4,"CCOCc1nc(NC2Cc3ccccc3C2)c2ccc(-c3ncccc3Cl)nc2n1 [Compound 62, 7-(3-chloropyridin-2-yl)-N-(2,3-dihydro-1H-inden-2-yl)-2-(ethoxymethyl)pyrido[2,3-d]pyrimidin-4-amine]",≤ 1000 nM

# Same assay, conditions: Table II; 50% decrease in fluorescence response of cells expressing human capsaicin receptor exposed to capsaicin
row,SMILES,IC50
1,"FC(F)(F)c1cccnc1-c1ccc2c(NCCCc3ccccc3)ncnc2c1 [Compound 63, (3-Phenyl-propyl)-[7-(3-trifluoromethyl-pyridin-2-yl)-quinazolin-4-yl]-amine]",≤ 1000 nM
2,"Cc1ccc(CCNc2ncnc3cc(-c4ncccc4C(F)(F)F)ccc23)cc1 [Compound 64, (2-p-Tolyl-ethyl)-[7-(3-trifluoromethyl-pyridin-2-yl)-quinazolin-4-yl]-amine]",≤ 1000 nM
3,"Cc1ccccc1CCNc1ncnc2cc(-c3ncccc3C(F)(F)F)ccc12 [Compound 65, (2-o-Tolyl-ethyl)-[7-(3-trifluoromethyl-pyridin-2-yl)-quinazolin-4-yl]-amine]",≤ 1000 nM
4,"Cc1cccc(CCNc2ncnc3cc(-c4ncccc4C(F)(F)F)ccc23)c1 [Compound 66, (2-m-Tolyl-ethyl)-[7-(3-trifluoromethyl-pyridin-2-yl)-quinazolin-4-yl]-amine]",≤ 1000 nM
5,"CCC(CNc1ncnc2cc(-c3ncccc3C(F)(F)F)ccc12)c1ccccc1 (stereo not shown) [Compound 68, (2-Phenyl-butyl)-[7-(3-trifluoromethyl-pyridin-2-yl)-quinazolin-4-yl]-amine]",≤ 1000 nM
6,"CCCC(CNc1ncnc2cc(-c3ncccc3C(F)(F)F)ccc12)c1ccccc1 (stereo not shown) [Compound 69, (2-Phenyl-pentyl)-[7-(3-trifluoromethyl-pyridin-2-yl)-quinazolin-4-yl]-amine]",≤ 1000 nM
7,"CCCCC(CNc1ncnc2cc(-c3ncccc3C(F)(F)F)ccc12)c1ccccc1 (stereo not shown) [Compound 70, (2-Phenyl-hexyl)-[7-(3-trifluoromethyl-pyridin-2-yl)-quinazolin-4-yl]-amine]",≤ 1000 nM
8,"CC(C)CC(CNc1ncnc2cc(-c3ncccc3C(F)(F)F)ccc12)c1ccccc1 (stereo not shown) [Compound 72, (4-Methyl-2-phenyl-pentyl)-[7-(3-trifluoromethyl-pyridin-2-yl)-quinazolin-4-yl]-amine]",≤ 1000 nM
9,"CCCCCC(CNc1ncnc2cc(-c3ncccc3C(F)(F)F)ccc12)c1ccccc1 (stereo not shown) [Compound 73, (2-Phenyl-heptyl)-[7-(3-trifluoromethyl-pyridin-2-yl)-quinazolin-4-yl]-amine]",≤ 1000 nM

# Now from value to compound:
row,IC50,SMILES
1,≤ 1000 nM,"FC(F)(F)c1cccnc1-c1ccc2c(NC3Cc4ccccc4C3)ncnc2c1 [Compound 76, Indan-2-yl-[7-(3-trifluoromethyl-pyridin-2-yl)-quinazolin-4-yl]-amine]"
2,≤ 1000 nM,"FC(F)(F)c1cccnc1-c1ccc2c(NC3CCc4ccccc4C3)ncnc2c1 (stereo not shown) [Compound 77, (1,2,3,4-Tetrahydro-naphthalen-2-yl)-[7-(3-trifluoromethyl-pyridin-2-yl)-quinazolin-4-yl]-amine]"
3,≤ 1000 nM,"FC(F)(F)c1cccnc1-c1ccc2c(NC3CCc4ccccc43)ncnc2c1 (stereo not shown) [Compound 78, Indan-1-yl-[7-(3-trifluoromethyl-pyridin-2-yl)-quinazolin-4-yl]-amine]"
4,≤ 1000 nM,"FC(F)(F)c1cccnc1-c1ccc2c(N[C@H]3CCCc4ccccc43)ncnc2c1 [Compound 81, (1,2,3,4-Tetrahydro-naphthalen-1-yl)-[7-(3-trifluoromethyl-pyridin-2-yl)-quinazolin-4-yl]-amine]"
5,≤ 1000 nM,"FC(F)(F)c1cccnc1-c1ccc2c(NCCc3ccccc3)nc(CN3CCSCC3)nc2c1 [Compound 97, Phenethyl-[2-thiomorpholin-4-ylmethyl-7-(3-trifluoromethyl-pyridin-2-yl)-quinazolin-4-yl]-amine]"
6,≤ 1000 nM,"CC1(C)CCCN(Cc2nc(NCCc3ccccc3)c3ccc(-c4ncccc4C(F)(F)F)cc3n2)C1 [Compound 100, [2(3,3-Dimethyl-piperidin-1-ylmethyl)-7-(3-trifluoromethyl-pyridin-2-yl)-quinazolin-4-yl]-phenethyl-amine]"
7,≤ 1000 nM,"FC(F)(F)c1cccnc1-c1ccc2c(NCCc3ccccc3)nc(CN3CCCCCCC3)nc2c1 [Compound 103, [2-Azocan-1-ylmethyl-7-(3-trifluoromethyl-pyridin-2-yl)-quinazolin-4-yl]-phenethyl-amine]"
8,≤ 1000 nM,"CC1CCN(Cc2nc(NCCc3ccccc3)c3ccc(-c4ncccc4C(F)(F)F)cc3n2)CC(C)(C)C1 (stereo not shown) [Compound 106, Phenethyl-[7-(3-trifluoromethyl-pyridin-2-yl)-2-(3,3,5-trimethyl-azepan-1-ylmethyl)-quinazolin-4-yl]-amine]"
9,≤ 1000 nM,"Cc1ccccc1CCNc1nc(CN2CCC(C)CC(C)(C)C2)nc2cc(-c3ncccc3C(F)(F)F)ccc12 (stereo not shown) [Compound 107, (2-o-Tolyl-ethyl)-[7-(3-trifluoromethyl-pyridin-2-yl)-2-(3,3,5-trimethyl-azepan-1-ylmethyl)quinazolin-4-yl]-amine]"
10,≤ 1000 nM,"Cc1ccccc1CCNc1nc(CN2CCC3(CC2)OCCO3)nc2cc(-c3ncccc3C(F)(F)F)ccc12 [Compound 110, [2-(1,4-Dioxa-8-aza-spiro[4.5]dec-8-ylmethyl)-7-(3-trifluoromethyl-pyridin-2-yl)-quinazolin-4-yl]-(2-o-tolyl-ethyl)-amine]"
11,≤ 1000 nM,"C=CCN(CC=C)Cc1nc(NCCc2ccccc2)c2ccc(-c3ncccc3C(F)(F)F)cc2n1 [Compound 130, [2-Diallylaminomethyl-7-(3-trifluoromethyl-pyridin-2-yl)-quinazolin-4-yl]-phenethyl-amine]"
12,≤ 1000 nM,"CCCN(Cc1nc(NCCc2ccccc2C)c2ccc(-c3ncccc3C(F)(F)F)cc2n1)CC1CC1 [Compound 140, [2-[(Cyclopropylmethyl-propyl-amino)-methyl]-7-(3-trifluoromethyl-pyridin-2-yl)-quinazolin-4-yl]-(2-o-tolyl-ethyl)-amine]"
13,≤ 1000 nM,"CCCCN(CCCC)Cc1nc(NCCc2ccccc2)c2ccc(-c3ncccc3C(F)(F)F)cc2n1 [Compound 145, [2-Dibutylaminomethyl-7-(3-trifluoromethyl-pyridin-2-yl)-quinazolin-4-yl]-phenethyl-amine]"
14,≤ 1000 nM,CCCCN(CCCC)Cc1nc(NCCc2ccccc2C)c2ccc(-c3ncccc3C(F)(F)F)cc2n1 [Compound 146]
15,≤ 1000 nM,"C=C(C)CN(CC)Cc1nc(NCCc2ccccc2)c2ccc(-c3ncccc3C(F)(F)F)cc2n1 [Compound 154, [2-{[Ethyl-(2-methyl-allyl)-amino]-methyl}-7-(3-trifluoromethyl-pyridin-2-yl)-quinazolin-4-yl]-phenethyl-amine]"
